What was measured:
[1] = system: Phosphodiesterase 4 enzyme purified from U937 human monocytic cells; test: Inhibition of PDE4 (phosphodiesterase reaction with [3H]-cAMP); assay type: biochemical; conditions: 1 μM cAMP plus 10 nM [3H]-cAMP, 45 min at 30° C., pH 7.5
Experimental: Phosphodiesterase 4 enzyme was purified from U937 human monocytic cells by gel filtration chromatography, and phosphodiesterase reactions were carried out as previously described. See, e.g., Muller et al., Bioorg. Med. Chem. Lett., 1998, 8(19): 2669-2674. Briefly, reactions were carried out in 96-well deep-well plates in 50 mM Tris HCl pH 7.5, 5 mM MgCl2, 1 μM cyclic adenosine monophosphate (cAMP), plus 10 nM [^3H]-cAMP for 45 min at 30° C. The reactions were terminated by boiling, treated with 1 mg/ml snake venom, and separated using AG-1X8 ion exchange resin (BioRad). Reactions consumed less than 15% of available substrate.

[2] = system: sarcoidosis patients with chronic cutaneous lesions despite systemic therapy; test: Open label clinical study, Sarcoidosis Activity and Severity Index (SASI); assay type: in vivo, human; conditions: for SASI induration score, median (range): 43 areas with induration, baseline median 2 (0-4), p<0.005, scale 0 to 4
Experimental: An open label study of sarcoidosis patients with chronic cutaneous lesions despite systemic therapy was performed to determine the safety and efficacy of (+)-2-[1-(3-ethoxy-4-methoxyphenyl)-2-methanesulfonylethyl]-4-acetylaminoisoindolin-1,3-dione therapy. Patients were on a stable treatment regimen (corticosteroids, methotrexate (max 10 mg/week), azathioprine, hydroxychloroquine, cyclophosphamide, minocycline, doxycycline, chloroquine) for at least three months prior to study entry. Patients were assessed by a previously validated scoring system for cutaneous sarcoidosis: Sarcoidosis Activity and Severity Index (SASI). Individual scores were made for erythema, induration, and desquamation on a scale of 0 to 4. For an individual area of the body, the percentage of involvement for sarcoidosis lesions was scored on a scale from 0 to 7. After establishing a baseline SASI score, patients began treatment with (+)-2-[1-(3-ethoxy-4-methoxyphenyl)-2-methanesulfonylethyl]-4-acetylaminoisoindolin-1,3-dione 20 mg twice a day over the next 12 weeks. A SASI score was determined by the same investigator at baseline and weeks 4 and 12 of treatment.
Thirteen patients completed 16 weeks of study, including 12 weeks of active drug therapy. […] Among the 13 patients, there were 59 areas with one or more positive SASI feature during treatment. Among the 43 areas with induration, there was a significant drop in the SASI score from baseline (median 2 (0-4)) after 4 weeks (median 1 (0-3), p<0.005) and 12 weeks (median 1 (0-3), p<0.005) therapy.

With `CCOc1cc([C@@H](CS(C)(=O)=O)N2C(=O)c3cccc(NC(C)=O)c3C2=O)ccc1OC` [(+)-2-[1-(3-ethoxy-4-methoxyphenyl)-2-methanesulfonylethyl]-4-acetylaminoisoindolin-1,3-dione] the IC50 [1] was 73.5 nM, the “change in SASI area of involvement during therapy” value ([2]; 20 mg twice a day, 12 weeks) was “no significant change” and the “change in SASI desquamation during therapy” value ([2]; 20 mg twice a day, 12 weeks) was “no significant change”. For the same molecule, the “change in SASI erythema during therapy” value ([2]; 20 mg twice a day, 12 weeks) was “no significant change”, the tolerability ([2]; 20 mg twice a day, 12 weeks, 13 patients) was “well tolerated” and the “discontinuation of drug treatment” value ([2]; 13 patients, 12 weeks of active drug therapy) was “No patient discontinued”. For the same molecule, the “SASI induration score, median (range)” value ([2]; after 4 weeks therapy, 20 mg twice a day) was 1 (0-3), the “SASI induration score, median (range)” value ([2]; after 12 weeks therapy, 20 mg twice a day) was 1 (0-3) and the “patients with dose reduced by 50% (one for nausea, the other for feeling jittery)” value ([2]; of 13 patients, continued on the reduced dose) was “two”. The “improvement in skin induration” value ([2]; within 4 weeks of institution of therapy) was “significant improvement”.

— patent publication US20140004182A1, “METHODS FOR THE TREATMENT OF SARCOIDOSIS” (priority 2009, published 2014)
